# Data: US6531119B1, “Compositions with low irritancy” (priority 1998, dated 2003)
# Tested on: skin
# Test: 21-Day Cumulative Irritation Test
# Format: in vivo, human
# Experimental: Each of the formulations of Examples 1-11 was evaluated for its tendency to cause skin erythema using the 21-Day Cumulative Irritation Test. In this test, 0.2 g of undiluted deodorant is applied daily for 21 days (excluding weekends) to the same 2-cm square patch of skin, which is occluded between applications. Each weekday during the test period, trained personnel grade the portion of skin where the test material is applied for signs of irritation and reapply the test material. Subjects fulfill specific inclusion criteria including not pregnant or breast feeding, over 18 years old, and without medical conditions which would interfere with the test. The grading system used is as follows:
# 0.5 Papular or papulovesicular response and/or dryness without erythema […]
# The total score is calculated by summing each individual's score on the 21 days of the test. […] The normalized score is the total score divided by the total number of readings for all subjects and multiplied by 21 (the number of readings) and by 10 (to normalize to 10 subjects). Normalized scores are analyzed using ANOVA (analysis of variance technique described in Duncan, A. J., “Analysis of Variance”, Quality Control and Industrial Statistics (Irwin Publishers, Homewood, Ill. 1986) including the effects of subject and product. Product comparisons are made at the 5% level based on Fisher's least significant differences. […]
structure (smiles),measurement,setting,value
CCCCCCCCCCCCOS(=O)(=O)[O-].[Na+] [Sodium Lauryl Sulfate],Normalized Score,"0.2 g undiluted product applied daily for 21 days to same occluded 2-cm square skin patch, total score normalized to 21 readings and 10 subjects",431.8
same,Irritation Classification,"classification of the normalized score, 21-Day Cumulative Irritation Test",Moderate
